Measurements from PMC3048208 (British Journal of Cancer, 2011).
Where a name gives a salt, the structure may show the parent alone. Marks after values point to notes of the source that are not given here.

System: patients with advanced solid tumours
Assay: Phase I safety: DLT and adverse events (CTCAE v3.0)
[1] = All grades, level 5, 50 mg, 4 patients
[2] = All grades, level 5.5, 60 mg, 7 patients
[3] = All grades, level 6, 70 mg, 6 patients
[4] = All grades, level 7, 90 mg, 2 patients
[5] = Grades 3/4, level 1, 10 mg 3 days every 2 weeks, 3 patients

Structure (SMILES): CCCCc1nc2cc(/C=C/C(=O)NO)ccc2n1CCN(CC)CC [SB939, 3-[2-butyl-1-(2-diethylaminoethyl)-1H-benzoimidazol-5-yl]-N-hydroxyacrylami-hydrochloride]
- Bilirubin (raised), no. of patients [1]: 0
- CPK, no. of patients [1]: 0
- Cardiac arrythmia other, no. of patients [1]: 0
- Cardiac dysfunction, no. of patients [1]: 0
- Cardiac ischaemia, no. of patients [1]: 0
- Constipation, no. of patients [1]: 0
- Creatinine (raised), no. of patients [1]: 0
- Diarrhoea, no. of patients [1]: 0
- Fatigue, no. of patients [1]: 3
- Leukopenia, no. of patients [1]: 1
- Lymphopenia, no. of patients [1]: 4
- Mucositis, no. of patients [1]: 0
- Myositis, no. of patients [1]: 0
- Nausea, no. of patients [1]: 2
- Neutropenia, no. of patients [1]: 1
- QT prolongation, no. of patients [1]: 0
- Supra ventricular arrythmia, no. of patients [1]: 0
- Syncope, no. of patients [1]: 0
- Thrombocytopenia, no. of patients [1]: 0
- Ventricular arrythmias (PVCs), no. of patients [1]: 0
- Ventricular bigemini, no. of patients [1]: 0
- Vomiting, no. of patients [1]: 2
- ALT (raised), no. of patients [2]: 4
- AST (raised), no. of patients [2]: 5
- Abdominal pain, no. of patients [2]: 0
- Alkaline phophatase (raised), no. of patients [2]: 6
- Altered taste, no. of patients [2]: 1
- Anaemia, no. of patients [2]: 7
- Anorexia, no. of patients [2]: 4
- Bilirubin (raised), no. of patients [2]: 2
- CPK, no. of patients [2]: 0
- Cardiac arrythmia other, no. of patients [2]: 1
- Cardiac dysfunction, no. of patients [2]: 0
- Cardiac ischaemia, no. of patients [2]: 0
- Constipation, no. of patients [2]: 0
- Creatinine (raised), no. of patients [2]: 2
- Diarrhoea, no. of patients [2]: 4
- Fatigue, no. of patients [2]: 6
- Leukopenia, no. of patients [2]: 5
- Lymphopenia, no. of patients [2]: 6
- Mucositis, no. of patients [2]: 0
- Myositis, no. of patients [2]: 0
- Nausea, no. of patients [2]: 5
- Neutropenia, no. of patients [2]: 5
- QT prolongation, no. of patients [2]: 1
- Supra ventricular arrythmia, no. of patients [2]: 0
- Syncope, no. of patients [2]: 0
- Thrombocytopenia, no. of patients [2]: 5
- Ventricular arrythmias (PVCs), no. of patients [2]: 0
- Ventricular bigemini, no. of patients [2]: 0
- Vomiting, no. of patients [2]: 4
- ALT (raised), no. of patients [3]: 1
- AST (raised), no. of patients [3]: 2
- Abdominal pain, no. of patients [3]: 0
- Alkaline phophatase (raised), no. of patients [3]: 3
- Altered taste, no. of patients [3]: 0
- Anaemia, no. of patients [3]: 6
- Anorexia, no. of patients [3]: 3
- Bilirubin (raised), no. of patients [3]: 0
- CPK, no. of patients [3]: 1
- Cardiac arrythmia other, no. of patients [3]: 0
- Cardiac dysfunction, no. of patients [3]: 0
- Cardiac ischaemia, no. of patients [3]: 0
- Constipation, no. of patients [3]: 0
- Creatinine (raised), no. of patients [3]: 2
- Diarrhoea, no. of patients [3]: 0
- Fatigue, no. of patients [3]: 4
- Leukopenia, no. of patients [3]: 3
- Lymphopenia, no. of patients [3]: 4
- Mucositis, no. of patients [3]: 1
- Myositis, no. of patients [3]: 0
- Nausea, no. of patients [3]: 4
- Neutropenia, no. of patients [3]: 3
- QT prolongation, no. of patients [3]: 1
- Supra ventricular arrythmia, no. of patients [3]: 0
- Syncope, no. of patients [3]: 0
- Thrombocytopenia, no. of patients [3]: 6
- Ventricular arrythmias (PVCs), no. of patients [3]: 0
- Ventricular bigemini, no. of patients [3]: 0
- Vomiting, no. of patients [3]: 2
- ALT (raised), no. of patients [4]: 2
- AST (raised), no. of patients [4]: 2
- Abdominal pain, no. of patients [4]: 0
- Alkaline phophatase (raised), no. of patients [4]: 1
- Altered taste, no. of patients [4]: 1
- Anaemia, no. of patients [4]: 2
- Anorexia, no. of patients [4]: 1
- Bilirubin (raised), no. of patients [4]: 1
- CPK, no. of patients [4]: 1
- Cardiac arrythmia other, no. of patients [4]: 1
- Cardiac dysfunction, no. of patients [4]: 1
- Cardiac ischaemia, no. of patients [4]: 1
- Constipation, no. of patients [4]: 0
- Creatinine (raised), no. of patients [4]: 2
- Diarrhoea, no. of patients [4]: 0
- Fatigue, no. of patients [4]: 2 ^c
- Leukopenia, no. of patients [4]: 1
- Lymphopenia, no. of patients [4]: 2
- Mucositis, no. of patients [4]: 0
- Myositis, no. of patients [4]: 0
- Nausea, no. of patients [4]: 2
- Neutropenia, no. of patients [4]: 1
- QT prolongation, no. of patients [4]: 1
- Supra ventricular arrythmia, no. of patients [4]: 1
- Syncope, no. of patients [4]: 0
- Thrombocytopenia, no. of patients [4]: 2
- Ventricular arrythmias (PVCs), no. of patients [4]: 1
- Ventricular bigemini, no. of patients [4]: 1
- Vomiting, no. of patients [4]: 2 ^c
- ALT (raised), no. of patients [5]: 0
- AST (raised), no. of patients [5]: 0
- Abdominal pain, no. of patients [5]: 0
- Alkaline phophatase (raised), no. of patients [5]: 0
- Altered taste, no. of patients [5]: 0
- Anaemia, no. of patients [5]: 0
- Anorexia, no. of patients [5]: 0
- Bilirubin (raised), no. of patients [5]: 0
- Cardiac arrythmia other, no. of patients [5]: 0
- Cardiac dysfunction, no. of patients [5]: 0
- Cardiac ischaemia, no. of patients [5]: 0
- Constipation, no. of patients [5]: 0
- Creatinine (raised), no. of patients [5]: 0
- Diarrhoea, no. of patients [5]: 0
- Fatigue, no. of patients [5]: 0
- Leukopenia, no. of patients [5]: 0
- Lymphopenia, no. of patients [5]: 0
- Mucositis, no. of patients [5]: 0
